This assay has as its target T1, VAV1 (Homo sapiens, UniProt P15498+Q96SW2).
T1 construct: A heterozygous VAV1 C-terminal HiBiT knock-in pool was generated at Monte Rosa Therapeutics from a clonal Jurkat cell; endogenous in cells; host or cells: Jurkat clone stably expressing LgBiT, homozygous GSPT1-G575N; heterozygous VAV1-HiBiT knock-in pool
Kind of assay: VAV1 degradation activity, VAV1-HiBiT knock-in Jurkat luminescence assay (Example A, Table 1). The settings on record: VAV1-HiBiT knock-in Jurkat cells, luminescence read at 6 and 24 hours; for Dmax: Jurkat. It is filed as cell-based. The procedure, abridged:
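Luminescence was measured at 6 and 24 h after adding compound (10 μM stock) to VAV1-HiBiT knock-in Jurkat cells, which had been pre-incubated ~16 h at 37° C. in RPMI/10% FBS containing Endurazine. EC50 values came from control-normalised responses fitted to a 3-parameter logistic model with hillslope fixed at 1.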
For orientation: With HiBiT, luminescence reflects the tagged protein that the partner subunit can reach.

The mark [1] stands for this setting: read-out: VAV1 DC50 (nM), class.

Read-outs that look alike come from different tables or passages of the source.

Consider `Cn1cncc1COc1ccc(-c2cccc(C3CCC(=O)NC3=O)c2Cl)cc1` (stereo not drawn) [Compound 186, 3-(2-chloro-4′-((1-methyl-1H-imidazol-5-yl)methoxy)-[1,1′-biphenyl]-3-yl)piperidine-2,6-dione], for which the Dmax was 95.3% (read-out: VAV1 Dmax %) and over 90% (read-out: VAV1 Dmax %, class). Also, the DC50 is 13.6 nM (read-out: VAV1 DC50) and at most 100 nM under setting [1].
In the case of `CN1CC2(CCC2)N(c2ccc(-c3cccc(C4CCC(=O)NC4=O)c3Cl)cc2)C1=O` (stereo not drawn) [Compound 341, 3-(2-chloro-4′-(7-methyl-6-oxo-5,7-diazaspiro[3.4]octan-5-yl)-[1,1′-biphenyl]-3-yl)piperidine-2,6-dione], the greatest degradation seen (Dmax) was 98.2% (read-out: VAV1 Dmax %) and over 90% (read-out: VAV1 Dmax %, class). Also, the half-maximal degradation concentration (DC50) was 2.46 nM (read-out: VAV1 DC50) and at most 100 nM under setting [1].
The corresponding values for `O=C1CCC(c2cccc(-c3ccc(N4CCCCC4C(F)(F)F)cc3)c2Cl)C(=O)N1` (stereo not drawn) [Compound 476] are 84%, 60 to 90%, 397 nM and 100 to 1000 nM.
Regarding `COc1cnc(Cc2ccc(-c3cccc(C4CCC(=O)NC4=O)c3Cl)cc2)nc1` (stereo not drawn) [Compound 422, 3-(2-chloro-4′-((5-methoxypyrimidin-2-yl)methyl)-[1,1′-biphenyl]-3-yl)piperidine-2,6-dione], the Dmax (read-out: VAV1 Dmax %) was found to be 98.4% and the maximal degradation (Dmax) (read-out: VAV1 Dmax %, class) is over 90%. The DC50 is, setting by setting: (read-out: VAV1 DC50) 4.35 nM; under setting [1], at most 100 nM.
As to `Cn1ncc2c1CCC(=O)N2c1ccc(-c2cccc(C3CCC(=O)NC3=O)c2Cl)cc1` (stereo not drawn) [Compound 316], the Dmax (read-out: VAV1 Dmax %) is 93.3% and the Dmax (read-out: VAV1 Dmax %, class) was over 90%. Moreover, the DC50 by setting is: (read-out: VAV1 DC50) 11.8 nM; under setting [1], at most 100 nM.
As for `CC1CCC(=O)N(Cc2ccc(-c3cccc(C4CCC(=O)NC4=O)c3Cl)cc2)C1` (stereo not drawn) [Compound 288], the Dmax by setting is: (read-out: VAV1 Dmax %) 96.7%; (read-out: VAV1 Dmax %, class) over 90%. In addition, the DC50 is, setting by setting: (read-out: VAV1 DC50) 6.09 nM; under setting [1], at most 100 nM.
`Cn1ccc(COc2ccc(-c3ccc(F)c(C4CCC(=O)NC4=O)c3Cl)cc2)n1` (stereo not drawn) [Compound 144, 3-(2-chloro-4-fluoro-4′-((1-methyl-1H-pyrazol-3-yl)methoxy)-[1,1′-biphenyl]-3-yl)piperidine-2,6-dione]: the Dmax reads like this: (read-out: VAV1 Dmax %) 65.3%; (read-out: VAV1 Dmax %, class) 60 to 90%. The DC50 runs as follows: (read-out: VAV1 DC50) 248 nM; under setting [1], 100 to 1000 nM.
In the case of `O=C1CCC(c2cccc(-c3ccc(OCc4ccncc4)cc3)c2Cl)C(=O)N1` (stereo not drawn) [Compound 124], the Dmax was 98.8% (read-out: VAV1 Dmax %) and over 90% (read-out: VAV1 Dmax %, class). Also, the DC50 is, setting by setting: (read-out: VAV1 DC50) 4.04 nM; under setting [1], at most 100 nM.
On to `COc1ccc(-c2ccc(F)c(C3CCC(=O)NC3=O)c2F)cc1C` (stereo not drawn) [Compound 148], for which the Dmax is, setting by setting: (read-out: VAV1 Dmax %) 21.4%; (read-out: VAV1 Dmax %, class) under 60%. The half-maximal degradation concentration (DC50) reads like this: (read-out: VAV1 DC50) at least 10000 nM; under setting [1], over 1000 nM.
The corresponding values for `Nc1ccc(-c2cccc(C3CCC(=O)NC3=O)c2Cl)cc1` (stereo not drawn) [Compound 130, 3-(4′-amino-2-chloro-[1,1′-biphenyl]-3-yl)piperidine-2,6-dione] are 84.6%, 60 to 90%, 37.1 nM and at most 100 nM.
On the same counts, the results for `Cn1cc(CNc2ccc(-c3cccc(C4CCC(=O)NC4=O)c3Cl)cc2)cn1` (stereo not drawn) [Compound 193, 3-(2-chloro-4′-(((1-methyl-1H-pyrazol-4-yl)methyl)amino)-[1,1′-biphenyl]-3-yl)piperidine-2,6-dione] are 91.7%, over 90%, 13.3 nM and at most 100 nM.
On the same counts, the results for `O=C1CCC(c2cccc(-c3ccc(N4C(=O)C[C@@H]5CCC[C@@H]54)cc3)c2Cl)C(=O)N1` (stereo partly drawn) [Compound 327] are 89.3%, 60 to 90%, 30.1 nM and at most 100 nM.
As for `O=C1CCC(c2cccc(-c3ccc(N4CCCOC4=O)nc3)c2Cl)C(=O)N1` (stereo not drawn) [Compound 451, 3-(2-chloro-3-(6-(2-oxo-1,3-oxazinan-3-yl)pyridin-3-yl)phenyl)piperidine-2,6-dione], the Dmax reads like this: (read-out: VAV1 Dmax %) 64%; (read-out: VAV1 Dmax %, class) 60 to 90%. In addition, the DC50 by setting is: (read-out: VAV1 DC50) 542 nM; under setting [1], 100 to 1000 nM.
The corresponding values for `CC1CCCC(=O)N1c1ccc(-c2cccc(C3CCC(=O)NC3=O)c2Cl)cc1` (stereo not drawn) [Compound 200, 3-(2-chloro-4′-(2-methyl-6-oxopiperidin-1-yl)-[1,1′-biphenyl]-3-yl)piperidine-2,6-dione] are 97%, over 90%, 5.14 nM and at most 100 nM.
The corresponding values for `O=C1CCC(c2cccc(-c3ccc(-n4cccc(CC(F)F)c4=O)cc3)c2Cl)C(=O)N1` (stereo not drawn) [Compound 444, 3-(2-chloro-4′-(3-(2,2-difluoroethyl)-2-oxopyridin-1(2H)-yl)-[1,1′-biphenyl]-3-yl)piperidine-2,6-dione] are 97.7%, over 90%, 7.1 nM and at most 100 nM.
Regarding `Cn1cnc(Cc2ccc(-c3cccc(C4CCC(=O)NC4=O)c3Cl)cc2)c1` (stereo not drawn) [Compound 408, 3-(2-chloro-4′-((1-methyl-1H-imidazol-4-yl)methyl)-[1,1′-biphenyl]-3-yl)piperidine-2,6-dione], the Dmax by setting is: (read-out: VAV1 Dmax %) 96%; (read-out: VAV1 Dmax %, class) over 90%. Besides, the DC50 runs as follows: (read-out: VAV1 DC50) 30.8 nM; under setting [1], at most 100 nM.
The corresponding values for `O=C1CCC(c2cccc(-c3ccc(Cc4cncnc4)cc3)c2Cl)C(=O)N1` (stereo not drawn) [Compound 376, 3-(2-chloro-4′-(pyrimidin-5-ylmethyl)-[1,1′-biphenyl]-3-yl)piperidine-2,6-dione] are 95.8%, over 90%, 15.2 nM and at most 100 nM.
The corresponding values for `O=C1CCC(c2cccc(-c3ccc(CN4CCCOC4=O)nc3)c2Cl)C(=O)N1` (stereo not drawn) [Compound 431, 3-(2-chloro-3-(6-((2-oxo-1,3-oxazinan-3-yl)methyl)pyridin-3-yl)phenyl)piperidine-2,6-dione] are 23.5%, under 60%, at least 10000 nM and over 1000 nM.
The corresponding values for `Cn1ccc(-c2ccc(-c3cccc(C4CCC(=O)NC4=O)c3Cl)cc2)n1` (stereo not drawn) [Compound 164, 3-(2-chloro-4′-(1-methyl-1H-pyrazol-3-yl)-[1,1′-biphenyl]-3-yl)piperidine-2,6-dione] are 71.9%, 60 to 90%, 542 nM and 100 to 1000 nM.
For the compound `Cc1ccnc(Cc2ccc(-c3cccc(C4CCC(=O)NC4=O)c3Cl)cc2)n1` (stereo not drawn) [Compound 437, 3-(2-chloro-4′-((4-methylpyrimidin-2-yl)methyl)-[1,1′-biphenyl]-3-yl)piperidine-2,6-dione], the Dmax reads like this: (read-out: VAV1 Dmax %) 96.5%; (read-out: VAV1 Dmax %, class) over 90%. In addition, the DC50 is, setting by setting: (read-out: VAV1 DC50) 5.92 nM; under setting [1], at most 100 nM.
The corresponding values for `O=C1CCC(c2cccc(-c3ccc(OCc4ccccn4)cc3)c2Cl)C(=O)N1` (stereo not drawn) [Compound 103] are 93.6%, over 90%, 45.4 nM and at most 100 nM.

For orientation: Dmax means the greatest extent of degradation seen. A word on the DC50: it is the concentration at which degradation of the target reaches its halfway point.

These data come from US12257247B2 (Monte Rosa Therapeutics AG, priority 2023, dated 2025).
